From ChEMBL document CHEMBL1201862, “PubChem BioAssay data set” (2004)
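These data come from cells grown in 96-well plates and exposed to compound for 48 hours at five concentrations. GI50 is the concentration that inhibits growth by half.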 The source made the active and inactive calls. Rule as the data show it: active = GI50 up to about 1.1 µM and inactive = higher.

Tests used:
Assay in all cases: NCI anticancer screen, dose series, 48 h
MOLT-4 = system: MOLT-4
HCT-116 = system: HCT-116
HOP-62 = system: HOP-62
EKVX = system: EKVX
OVCAR-5 = system: OVCAR-5
IGROV-1 = system: IGROV-1
CAKI-1 = system: CAKI-1
COLO 205 = system: COLO 205
UO-31 = system: UO-31
NCI-H522 = system: NCI-H522
RXF 393 = system: RXF 393
A498 = system: A498
ACHN = system: ACHN
NCI-H226 = system: NCI-H226
UACC-62 = system: UACC-62
SF-268 = system: SF-268
786-0 = system: 786-0
HCT-15 = system: HCT-15
NCI/ADR-RES = system: NCI/ADR-RES
MDA-MB-435 = system: MDA-MB-435

Row | Structure (SMILES) | GI50 (MOLT-4) | GI50 (HCT-116) | GI50 (HOP-62) | GI50 (EKVX) | GI50 (OVCAR-5) | GI50 (IGROV-1) | GI50 (CAKI-1) | GI50 (COLO 205) | GI50 (UO-31) | GI50 (NCI-H522) | GI50 (RXF 393) | GI50 (A498) | GI50 (ACHN) | GI50 (NCI-H226) | GI50 (UACC-62) | GI50 (SF-268) | GI50 (786-0) | GI50 (HCT-15) [µM] | GI50 (NCI/ADR-RES) | GI50 (MDA-MB-435)
1 | COC(=O)C(Cc1nc2ccc(Cl)cc2nc1O)/C(=N/NC(N)=O)C(=O)Nc1ccc(Cl)cc1 (stereo unspecified) | > 100 µM (inactive) | > 100 µM (inactive) | > 100 µM (inactive) | 20.4 µM (inactive) | > 100 µM (inactive) | > 100 µM (inactive) | > 100 µM (inactive) | > 100 µM (inactive) | > 100 µM (inactive) | > 100 µM (inactive) | > 100 µM (inactive) | > 100 µM (inactive) | > 100 µM (inactive) | > 100 µM (inactive) | > 100 µM (inactive) | > 100 µM (inactive) | > 100 µM (inactive) | > 100 |  | 
2 | CCN(CC)c1ccc2cc3ccc(N(CC)CC)cc3[o+]c2c1 | 0.127 µM (active) | 0.29 µM (active) | 3.31 µM (inactive) | 5.5 µM (inactive) | 6.82 µM (inactive) | 2.08 µM (inactive) | 4.06 µM (inactive) | 0.798 µM (active) | 2.28 µM (inactive) | 1.69 µM (inactive) | 2.36 µM (inactive) | 14.6 µM (inactive) | 1.26 µM (inactive) | 5.62 µM (inactive) | 1.71 µM (inactive) | 1.29 µM (inactive) | 2.97 µM (inactive) | 2.07 |  | 
3 | CC12CC(c3ccccc3O1)C(C(=O)Nc1cccc(F)c1)C(=O)N2 (stereo unspecified) | 18.8 µM (inactive) | 91.2 µM (inactive) | > 100 µM (inactive) | 31.6 µM (inactive) | > 100 µM (inactive) | 40.7 µM (inactive) | 92.3 µM (inactive) | 62.7 µM (inactive) | 7.78 µM (inactive) | > 100 µM (inactive) |  | > 100 µM (inactive) | > 100 µM (inactive) |  | 52.6 µM (inactive) | > 100 µM (inactive) | > 100 µM (inactive) | 42.9 | 26.6 µM (inactive) | 38.8 µM (inactive)
4 | CN1c2ccccc2N(C)C2C1N(C)c1ccccc1N2C (stereo unspecified) | 2.86 µM (inactive) | 12.7 µM (inactive) | 34.3 µM (inactive) | 61.5 µM (inactive) | 59.3 µM (inactive) | 20.7 µM (inactive) | 15.1 µM (inactive) | 10.8 µM (inactive) | 31.6 µM (inactive) | 4.73 µM (inactive) | 11.1 µM (inactive) | 31.6 µM (inactive) | 40.1 µM (inactive) | 23.2 µM (inactive) | 5.15 µM (inactive) | 12.3 µM (inactive) | 32.9 µM (inactive) | 4.25 |  | 
5 | COCP1(=S)OC(C)CCN1C(C)C (stereo unspecified) |  | > 100 µM (inactive) | > 100 µM (inactive) | > 100 µM (inactive) | > 100 µM (inactive) | > 100 µM (inactive) | > 100 µM (inactive) | > 100 µM (inactive) | > 100 µM (inactive) |  |  |  | > 100 µM (inactive) | > 100 µM (inactive) | > 100 µM (inactive) | > 100 µM (inactive) | > 100 µM (inactive) | > 100 | > 100 µM (inactive) | > 100 µM (inactive)
6 | CC(C)=CCC[C@](C)(O[C@@H]1O[C@H](CO)[C@@H](O)[C@H](O)[C@H]1O)[C@H]1CC[C@]2(C)[C@@H]1[C@H](O)C[C@@H]1[C@@]3(C)CC[C@H](O)C(C)(C)[C@@H]3[C@@H](O[C@@H]3O[C@H](CO)[C@@H](O)[C@H](O)[C@H]3O)C[C@]12C [GINSENOSIDE RG1] |  | > 100 µM (inactive) | > 100 µM (inactive) | > 100 µM (inactive) | > 100 µM (inactive) | > 100 µM (inactive) | > 100 µM (inactive) | > 100 µM (inactive) | > 100 µM (inactive) | > 100 µM (inactive) | > 100 µM (inactive) | > 100 µM (inactive) | > 100 µM (inactive) | > 100 µM (inactive) | > 100 µM (inactive) | > 100 µM (inactive) | > 100 µM (inactive) | > 100 |  | > 100 µM (inactive)
7 | COc1cc2c(cc1O)[C@H](C)C(c1ccc(Cl)cc1)O2 (stereo partly specified) | 15.3 µM (inactive) | 16.1 µM (inactive) | 22.6 µM (inactive) | 23 µM (inactive) | 25.4 µM (inactive) | 22.5 µM (inactive) | 11.6 µM (inactive) | 27.2 µM (inactive) | 24.4 µM (inactive) | 13.3 µM (inactive) | 24.6 µM (inactive) | 11.9 µM (inactive) | 14.1 µM (inactive) | 24.9 µM (inactive) | 21.2 µM (inactive) | 20.7 µM (inactive) | 17.1 µM (inactive) | 13.1 |  | 
8 | Cc1c(C(=O)CC(=O)C(=O)Nc2ccccc2C(F)(F)F)[n+]([O-])c2ccccc2[n+]1[O-] |  | 14.7 µM (inactive) | 44 µM (inactive) | 19.5 µM (inactive) | 26.8 µM (inactive) | 18 µM (inactive) | 26.7 µM (inactive) | 12.3 µM (inactive) | 35.1 µM (inactive) | 16.4 µM (inactive) | 19.2 µM (inactive) | > 100 µM (inactive) | 62.2 µM (inactive) | > 100 µM (inactive) | 18 µM (inactive) | 21.2 µM (inactive) | 33.6 µM (inactive) | 16.8 |  | 
